Data published in patent EP4703361A1, “PYRIDAZINONE TRPC4/5 INHIBITOR AND USE THEREOF” (Shanghai Institute of Materia Medica, Chinese Academy of …, priority 2023, dated 2024).

Experiments:
[1] = molecular target: T1, hTRPC5 (Homo sapiens, UniProt Q9UL62); test: TRPC5 inhibitory activity assay (FLIPR calcium flux, Fluo-4, agonist Englerin A); type: cell-based; conditions: HEK-293 cells expressing hTRPC5; agonist Englerin A 0.3 nM
T1 construct: expressed in transfected cells; host or cells: HEK-293
T1 sequence (Q9UL62 1-973): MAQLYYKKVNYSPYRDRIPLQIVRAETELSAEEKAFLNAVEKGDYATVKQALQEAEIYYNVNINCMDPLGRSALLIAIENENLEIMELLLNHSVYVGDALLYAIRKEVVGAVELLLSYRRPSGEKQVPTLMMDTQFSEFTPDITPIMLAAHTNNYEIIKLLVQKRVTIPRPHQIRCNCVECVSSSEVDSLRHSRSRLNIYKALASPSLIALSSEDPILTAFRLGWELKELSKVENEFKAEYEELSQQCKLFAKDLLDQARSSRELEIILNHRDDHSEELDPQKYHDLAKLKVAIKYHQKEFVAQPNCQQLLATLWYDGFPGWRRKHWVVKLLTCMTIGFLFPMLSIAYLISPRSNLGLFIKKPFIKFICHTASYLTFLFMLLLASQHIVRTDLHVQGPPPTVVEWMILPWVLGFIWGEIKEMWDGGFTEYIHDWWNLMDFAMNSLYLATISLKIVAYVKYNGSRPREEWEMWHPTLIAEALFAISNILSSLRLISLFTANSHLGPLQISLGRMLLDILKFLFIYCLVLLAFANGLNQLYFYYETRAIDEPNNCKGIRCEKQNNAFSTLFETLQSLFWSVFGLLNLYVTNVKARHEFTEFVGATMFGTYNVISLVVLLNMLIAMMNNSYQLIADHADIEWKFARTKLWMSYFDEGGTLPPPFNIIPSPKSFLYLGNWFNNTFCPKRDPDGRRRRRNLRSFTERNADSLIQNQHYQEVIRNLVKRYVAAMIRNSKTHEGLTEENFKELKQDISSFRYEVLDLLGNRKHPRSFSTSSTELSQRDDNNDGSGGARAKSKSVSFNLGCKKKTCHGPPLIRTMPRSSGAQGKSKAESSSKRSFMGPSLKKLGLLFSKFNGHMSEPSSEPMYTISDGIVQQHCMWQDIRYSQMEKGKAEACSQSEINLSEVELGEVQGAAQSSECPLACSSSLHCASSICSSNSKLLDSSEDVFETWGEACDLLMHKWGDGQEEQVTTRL
Description: HEK-293 cells expressing hTRPC4 or hTRPC5 were seeded into polylysine (PDL)-coated, black-bottomed, transparent 96-well plates at 2 × 10^4 cells per well. After 8 h of culture, the culture medium was discarded and 60 µL of 4 µM Fluo-4/AM dye was added. The plates were incubated at 37°C for 60 min and then rinsed five times with calcium flux assay buffer. […] After recording for 60 seconds, solvent control, test compound and positive inhibitor were added, and the signal was collected for another 300 seconds. Then, the agonist Englerin A (EA) (MedChemExpress, Shanghai, China, final concentration of 0.3 nM) was added, and the fluorescence signal was collected for another 600 seconds. The fluorescence signal in the trajectory diagram was expressed as F/F0, wherein F was the fluorescence signal at different time points and F0 was the basic fluorescence signal, that is, the average of the fluorescence signals at the first 10 time points. The dose-effect curve is first established with F/F0 = 1 as the baseline. The area under the curve of the fluorescence intensity change after the addition of EA was calculated. The IC50 value was calculated using the log[Inhibitor] vs. response - Variable slope, combining the area under the curve and the log value of the compound concentration.

[2] = in vitro; conditions: human, microsomes, pH 7.4
Description: (§1) 0.1M pH 7.4 Tris buffer was prepared and then this buffer was used to prepare a 100 mM MgCl2 solution and a 10 mM coenzyme factor NADPH solution. The test compound was first prepared as a stock solution in DMSO and then diluted to a working concentration with 0.1% (w/v) BSA-PBS solution as needed.
(§2) During the assay, the liver microsome in TRIS buffer (final concentration of 0.33 mg/mL microsome protein), MgCl2 solution (final concentration of 5 mM), test compound solution (final concentration of 1 µM), and NADPH solution (final concentration of 1 mM) were incubated at 37°C. The reaction was terminated by adding methanol at 0, 7, 17, 30, and 60 minutes. The residual concentration of the test compound was determined using LC/MS/MS.
(§3) Calculation of in vivo clearance: Cl = (Clint × Houston × LW)/(1000); [formula]
(§4) Calculation of hepatic clearance: Clhep = (HBF × fu × Cl)/(HBF + (fu×Cl)); [formula]
(§5) Calculation of Metabolic utilization rate: %MF = 100−(Clhep × 100)/(HBF). [formula]
(§6) ke: Slope of the linear regression line (absolute value of slope) when plotting semi-logarithmic graph. The semi-logarithmic plot was made with the semi-logarithm of the remaining percentage of substrate versus reaction time. P: Microsome protein concentration (mg/mL); Houston: Houston factor (45 mg microsome protein/g liver); LW: Liver weight (g); HBF: Hepatic blood flow (mL/min); fu: Unbound fraction (typically fu=1).

[3] = in vitro; conditions: mouse, microsomes, pH 7.4
Description: as §1, §2, §3, §4, §5, §6

[4] = Liver microsome stability test (human); conditions: for MF %: human liver microsomes, metabolic bioavailability; for half-life at 1 µM: human, liver microsomes, pH 7.4
Description: as §1, §2, §3, §4, §5, §6

[5] = Liver microsome stability test (mouse); conditions: for MF %: mouse liver microsomes, metabolic bioavailability; for half-life at 1 µM: mouse, liver microsomes, pH 7.4
Description: as §1, §2, §3, §4, §5, §6

[6] = tested on: DOCA-salt hypertensive nephropathy rats; test: DOCA-salt-induced hypertensive nephropathy rat model; type: in vivo, SD rats; conditions: oral treatment for 3 weeks, losartan 30 mg/kg once a day
Description: After one week of adaptive feeding, 40 healthy male SD rats (SPF grade, 6 weeks old, weighing 200 g) were randomly divided into cages and fed with normal water. Five rats were selected as the normal group. The other 35 rats were weighed and anesthetized with 6% (w/v) chloral hydrate (200 g/ml, Sinopharm Group Reagent Company) intraperitoneally. The dorsal surgical area was then trimmed and the rats were fixed in a prone position on a surgical board. After strict disinfection, a 2-cm incision was made on the left side of the spine, below the twelfth rib. The muscles were separated, the renal capsule was freed, and the left kidney was exposed. The renal artery and vein were ligated close to the renal hilum, and the left kidney was removed. After clearing congestion, the muscle layer and skin were sutured. After surgery (after waking up from anesthesia), the rats were given an intraperitoneal injection of penicillin sodium (80,000 units intraperitoneal injection, for 3 consecutive days, prepared with normal saline. If 400,000 units of powder were used with 2.5 mL of normal saline, and 0.5 mL was injected per mouse per day). Afterwards, the normal group was given a subcutaneous injection of vegetable oil (commonly corn oil) and fed with tap water; the DOCA-salt modeling group was given a subcutaneous injection of deoxycorticosterone acetate (DOCA, CAS: 56-47-3, Shanghai Aladdin Biochemical Technology) dissolved in vegetable oil once a week, 30 mg/kg each time, and 10 g/L NaCl and 2 g/L KCl were added to the drinking water. The model was established after 4 consecutive weeks of induction.
Four weeks after modeling, the DOCA-salt hypertensive nephropathy rats were divided into four groups according to UACR. The drug was dissolved in 2% (v/v) DMSO + 2% (w/v) Tween 80 + physiological saline system and administered by gavage. […] Normal group: 5 rats, raised normally. Each group had free access to food and water.
After the start of drug administration, rats were placed in metabolic cages to collect 24 hours urine per week. […] Three weeks after administration, serum was collected to check the concentrations of blood creatinine and urea nitrogen. Then, the rats were euthanized under anesthesia, and the renal tissues were obtained. The RNA levels of nephrin and podocin were detected by quantitative RT-PCR.
GraphPad Prism (Ver 6.0) was used for statistical analysis. All data were expressed as mean ± standard error (mean ± SEM). One-way ANOVA was used to analyze the data. Dunnett's multiple test was used to analyze the significance of the differences between the groups. When P < 0.05, the differences between the groups were statistically significant.

[7] = Drug tissue distribution after oral administration to mice; conditions: for Drug concentration Brain / Drug concentration Colon / Drug concentration Heart / Drug concentration Kidney / Drug concentration Liver / Drug concentration Lung / Drug concentration Muscle / Drug concentration Plasma / Drug concentration Spleen: mice, 10 mg/kg oral
Description: 250 mg of CMC-Na was weighted accurately, dissolved in 50 mL of mili-Q water, and sonicated for 1 h to prepare a 0.5% (m/v) CMC-Na solution for later use. […] After vortexing to dissolve, 140 µL of Tween 80 was added and mixed by vortex. Then 6.72 mL of CMC-Na solution was added and sonicated for 30 min to obtain 7 mL of a 1.0 mg/mL solution for use.
Mice were able to eat and drink freely and randomly divided into groups, with 3 mice in each group, and each mouse was gavaged with a dosage volume of 10 mL/kg. Blood was collected from the orbital venous plexus 1 and 4 hours after administration. Approximately 500 µL of mouse blood was placed in an EDTA-K2 anticoagulant tube. At the same time points, the brain, heart, lung, liver, kidney, spleen, colon, and muscle tissues of the mice were collected. […] Mouse brain, heart, lung, liver, kidney, spleen, colon, and muscle tissues were ground into tissue homogenate using a grinder with physiological saline equal to 5 times the weight of the tissue. The homogenate was centrifuged at 3,000 rpm for 10 min, and the supernatant was stored at -80°C for later use.
198 µL of plasma sample was placed in a centrifuge tube, 2 µl of internal standard solution was added, then 400 µL of acetonitrile was added, mixed by vortex for 1 min, and centrifuged at 13,000 rpm for 6 min. All the supernatant was taken, evaporated at room temperature for two days, re-dissolved in 200 µL of acetonitrile solvent, filtered with a 0.22 µm filter membrane and then injected for testing. 198 µL of the tissue homogenate supernatant sample was placed in a centrifuge tube, 2 µl of internal standard solution was added, then 400 µL of acetonitrile was added, mixed by vortex for 1 min, and centrifuged at 13,000 rpm for 6 min. All the supernatant was taken, evaporated at room temperature for two days, re-dissolved in 200 µL of acetonitrile solvent, filtered with a 0.22 µm filter membrane and then injected for testing.
Chromatographic column: Ultimate XB-C18 3 µM 2.1*100 mm; flow rate: 0.3 mL/min; column temperature: 30 °C; injection volume: 5 µL; mobile phase: A (pure water, containing 0.1% by volume formic acid), B (acetonitrile). The mass spectrometry ion source was an electrospray ionization (ESI) ionization source with a source temperature of 300°C.

[8] = E21 high dose (10 mg/kg morning and evening), Figure 4
[9] = E21 medium dose (5 mg/kg morning and evening), Figure 3

In the case of `[N-]=[N+]=NC(c1ccc(F)cc1C(F)(F)F)c1cnc2n1CCN(c1cn[nH]c(=O)c1Cl)C2` (stereo not shown) [Example E9, 5-(3-(azido(4-fluoro-2-(trifluoromethyl)phenyl)methyl)-5,6-dihydroimidazo[1,2-a]pyrazin-7(8H)-yl)-4-chloropyridazin-3(2H)-one], the IC50 [1] is reported as 24.6 nM.
For `O=c1[nH]ncc(N2CCn3c(Cc4ccc(F)cc4C(F)(F)F)cnc3C2)c1Cl` [Example L002], the IC50 [1] was 10.4 nM, the half-life at 1 µM [2] was 1.1 h and the half-life at 1 µM [3] was 0.645 h.
Molecule `C=C(c1cc(F)ccc1Cl)c1cnc2n1CCN(c1cn[nH]c(=O)c1Cl)C2` [Example E27, 4-chloro-5-(3-(1-(2-chloro-5-fluorophenyl)vinyl)-5,6-dihydroimidazo[1,2-a]pyrazin-7(8H)-yl)pyridazin-3(2H)-one] has an IC50 [1] of 5.28 nM.
`CC(c1cc(F)ccc1Cl)c1cnc2n1CCN(c1cn[nH]c(=O)c1Cl)C2` (stereo not shown) [Example E29, 4-chloro-5-(3-(1-(2-chloro-5-fluorophenyl)ethyl)-5,6-dihydroimidazo[1,2-a]pyrazin-7(8H)-yl)pyridazin-3(2H)-one] gave an MF % [4] of 39.6%, a half-life at 1 µM [4] of 1.17 h and an MF % [5] of 54.4%. The half-life at 1 µM [5] was 0.94 h.
For `[N-]=[N+]=NC(c1cc(F)ccc1Cl)c1cnc2n1CCN(c1cn[nH]c(=O)c1Cl)C2` (stereo not shown) [Example E30, 5-(3-(azido(2-chloro-5-fluorophenyl)methyl)-5,6-dihydroimidazo[1,2-a]pyrazin-7(8H)-yl)-4-chloropyridazin-3(2H)-one], the IC50 [1] was 37.1 nM.
With `O=C(c1ccc(F)cc1C(F)(F)F)c1nnc2n1CCN(c1cn[nH]c(=O)c1Cl)C2` [Example E41, 4-chloro-5-(3-(4-fluoro-2-(trifluoromethyl)benzoyl)-5,6-dihydro-[1,2,4]triazolo[4,3-a]pyrazin-7(8H)-yl)pyridazin-3(2H)-one] the IC50 [1] was 146 nM.
For `CCCCc1nc(Cl)c(CO)n1Cc1ccc(-c2ccccc2-c2nn[nH]n2)cc1` [losartan], the “levels of nephrin (mRNA, kidney)” value [6, 8] was “effectively increase”, the “levels of podocin (mRNA, kidney)” value [6, 8] was “effectively increase” and the “serum creatinine (Scr)” value [6, 9] was “effectively reduce”. The “urea nitrogen (BUN)” value [6, 9] was “no effect”.
In the case of `COC(c1ccc(F)cc1Cl)c1cnc2n1CCN(c1cn[nH]c(=O)c1Cl)C2` (racemic) [Example E21, 4-chloro-5-(3-((2-chloro-4-fluorophenyl)(methoxy)methyl)-5,6-dihydroimidazo[1,2-a]pyrazin-7(8H)-yl)pyridazin-3(2H)-one], the “drug exposure and distribution in plasma, liver, and kidney” value ([7]; 1 and 4 hours after oral administration to mice) is reported as “good”, the “Drug concentration Brain” value ([7]; 1 h) is reported as 52 ng/g and the “Drug concentration Colon” value ([7]; 1 h) is reported as 824 ng/g. The “Drug concentration Heart” value ([7]; 1 h) was 191 ng/g, the “Drug concentration Kidney” value ([7]; 1 h) was 719 ng/g and the “Drug concentration Liver” value ([7]; 1 h) was 565 ng/g. The “Drug concentration Lung” value ([7]; 1 h) was 219 ng/g, the “Drug concentration Muscle” value ([7]; 1 h) was 153 ng/g and the “Drug concentration Plasma” value ([7]; 1 h) was 1147 ng/mL. For the same molecule, the “Drug concentration Spleen” value ([7]; 1 h) was 531 ng/g, the “Drug concentration Brain” value ([7]; 4 h) was 28 ng/g and the “Drug concentration Colon” value ([7]; 4 h) was 133 ng/g. The “Drug concentration Heart” value ([7]; 4 h) was 26 ng/g, the “Drug concentration Kidney” value ([7]; 4 h) was 97 ng/g and the “Drug concentration Liver” value ([7]; 4 h) was 205 ng/g. For the same molecule, the “Drug concentration Lung” value ([7]; 4 h) was 39 ng/g, the “Drug concentration Muscle” value ([7]; 4 h) was 52 ng/g and the “Drug concentration Plasma” value ([7]; 4 h) was 250 ng/mL. The “Drug concentration Spleen” value ([7]; 4 h) was 60 ng/g.
Work on `CC(c1ccc(F)cc1Cl)c1cnc2n1CCN(c1cn[nH]c(=O)c1Cl)C2` (stereo not shown) [Example E28, 4-chloro-5-(3-(1-(2-chloro-4-fluorophenyl)ethyl)-5,6-dihydroimidazo[1,2-a]pyrazin-7(8H)-yl)pyridazin-3(2H)-one] yielded an IC50 [1] of 18.3 nM.
Work on `[2H]C([2H])([2H])OC(c1ccc(F)cc1C)c1cnc2n1CCN(c1cn[nH]c(=O)c1Cl)C2` (stereo not shown) [Example E24, 4-chloro-5-(3-((4-fluoro-2-methylphenyl)(methoxy-d3)methyl)-5,6-dihydroimidazo[1,2-a]pyrazin-7(8H)-yl)pyridazin-3(2H)-one] yielded an MF % [4] of 63.8%, a half-life at 1 µM [4] of 3.15 h and an MF % [5] of 55.9%. For the same molecule, the half-life at 1 µM [5] was 0.997 h.
Molecule `COC(c1cc(F)ccc1Cl)c1cnc2n1CCN(c1cn[nH]c(=O)c1Cl)C2` (stereo not shown) [Example E22, 4-chloro-5-(3-((2-chloro-5-fluorophenyl)(methoxy)methyl)-5,6-dihydroimidazo[1,2-a]pyrazin-7(8H)-yl)pyridazin-3(2H)-one] has an IC50 [1] of 60.1 nM.
